# Results: patent US20230330093A1, “APPLICATION OF NITROGEN-CONTAINING SATURATED HETEROCYCLIC COMPOUND” (SHANGHAI PHARMACEUTICALS HOLDING CO., LTD., priority 2020, published 2023)
# Legend:
# [1] = system: cynomolgus monkeys; experiment: 4-week safety study: serum biochemistry; format: in vivo
# Experimental: […] (1) Hematological and coagulation index examination were performed using a Bayer ADVIA2120 (Germany) and a Sysmex CA-1500 (Japan). (2) The serum biochemical examination was assessed using a HITACHI 7080 automated analyzer (Japan) and an Easylyte PLUS electrolyte analyzer (MEDICA, America). (3) The 24-h pooled urine of each animal was collected by a tray under each cage. Urinalysis was carried out using Uritest-300 (China). (4) The 24-h pooled faeces of each monkey were collected by a tray under each cage. Fecal occult blood was detected. (5) ACCESS 2 Chemiluminescence immunoassay was used for myocardial troponin (TropI, non-GLP) test.
# [2] = 4-week safety study: toxicokinetics (plasma AUC0-24h, Cmax); format: in vivo, cynomolgus monkeys
# Experimental: Blood samples were obtained on day1 and day26 at 0, 0.5, 1.5, 3, 5, 7 and 24 h after administration. On each occasion, approximately 1.0 mL of blood was drawn from the vein and collected into EDTA-K2 anticoagulant tubes. The blood samples were put on ice and then centrifuged (3500 rpm, 5 min) at 4° C. to obtain plasma samples, which were kept frozen at about −80° C. until analysis. Toxicokinetics determination of the compound of Formula I was conducted at the Institute of Materia Medica, Chinese Academy of Sciences (Shanghai, China).
structure (smiles),measurement,setting,value
COC(=O)NCCCn1nc([C@@H](C)N(C(=O)[C@H]2CNCCO2)C2CC2)c2ccc(C)nc21 [compound of Formula I],K,"[1]; Male, 20 mg/kg, d0",5.1 ± 0.3 mmol/L
same,Na,"[1]; Male, 20 mg/kg, d0",148.7 ± 2.0 mmol/L
same,BUN,"[1]; Male, 20 mg/kg, d14",4.8 ± 0.5 mmol/L
same,CHOL,"[1]; Male, 20 mg/kg, d14",2.6 ± 0.4 mmol/L
same,CPK,"[1]; Male, 20 mg/kg, d14",128.2 ± 50.8 U · L^−1
same,CREA,"[1]; Male, 20 mg/kg, d14",65 ± 4.3 µM
same,K,"[1]; Male, 20 mg/kg, d14",4.6 ± 0.3 mmol/L
same,Na,"[1]; Male, 20 mg/kg, d14",148.7 ± 1.6 mmol/L
same,BUN,"[1]; Male, 20 mg/kg, d26",5.6 ± 0.3 mmol/L
same,CHOL,"[1]; Male, 20 mg/kg, d26",2.7 ± 0.5 mmol/L
same,CPK,"[1]; Male, 20 mg/kg, d26",154.4 ± 21.5 U · L^−1
same,CREA,"[1]; Male, 20 mg/kg, d26",64 ± 5.5 µM
same,K,"[1]; Male, 20 mg/kg, d26",5.4 ± 0.9 mmol/L
same,Na,"[1]; Male, 20 mg/kg, d26",147.9 ± 1.9 mmol/L
same,BUN,"[1]; Male, 20 mg/kg, d 56",5.2 ± 0.4 mmol/L
same,CHOL,"[1]; Male, 20 mg/kg, d 56",2.6 ± 0.1 mmol/L
same,CPK,"[1]; Male, 20 mg/kg, d 56",161.0 ± 87.7 U · L^−1
same,CREA,"[1]; Male, 20 mg/kg, d 56",64 ± 5.7 µM
same,K,"[1]; Male, 20 mg/kg, d 56",5.3 ± 1.1 mmol/L
same,Na,"[1]; Male, 20 mg/kg, d 56",144.6 ± 1.6 mmol/L
same,BUN,"[1]; Male, 100 mg/kg, d0",5.7 ± 0.5 mmol/L
same,CHOL,"[1]; Male, 100 mg/kg, d0",3.6 ± 0.4 mmol/L
same,CPK,"[1]; Male, 100 mg/kg, d0",161.4 ± 12.3 U · L^−1
same,CREA,"[1]; Male, 100 mg/kg, d0",66.6 ± 8.6 µM
same,K,"[1]; Male, 100 mg/kg, d0",4.8 ± 0.4 mmol/L
same,Na,"[1]; Male, 100 mg/kg, d0",149.1 ± 2.9 mmol/L
same,BUN,"[1]; Male, 100 mg/kg, d14",6.1 ± 1.5 mmol/L
same,CHOL,"[1]; Male, 100 mg/kg, d14",3.0 ± 0.6 mmol/L
same,CPK,"[1]; Male, 100 mg/kg, d14",213.4 ± 67.1 U · L^−1
same,CREA,"[1]; Male, 100 mg/kg, d14",63 ± 4.1 µM
same,K,"[1]; Male, 100 mg/kg, d14",4.8 ± 0.4 mmol/L
same,Na,"[1]; Male, 100 mg/kg, d14",148.3 ± 2.5 mmol/L
same,BUN,"[1]; Male, 100 mg/kg, d26",5.9 ± 1.0 mmol/L
same,CHOL,"[1]; Male, 100 mg/kg, d26",2.8 ± 0.3 mmol/L
same,CPK,"[1]; Male, 100 mg/kg, d26",179.8 ± 42.1 U · L^−1
same,CREA,"[1]; Male, 100 mg/kg, d26",63 ± 8.5 µM
same,K,"[1]; Male, 100 mg/kg, d26",5.2 ± 0.2 mmol/L
same,Na,"[1]; Male, 100 mg/kg, d26",147.1 ± 2.4 mmol/L
same,BUN,"[1]; Male, 100 mg/kg, d 56",5.7 ± 1.5 mmol/L
same,CHOL,"[1]; Male, 100 mg/kg, d 56",2.8 ± 0.6 mmol/L
same,CPK,"[1]; Male, 100 mg/kg, d 56",109.0 ± 9.9 U · L^−1
same,CREA,"[1]; Male, 100 mg/kg, d 56",58.5 ± 3.5 µM
same,K,"[1]; Male, 100 mg/kg, d 56",4.2 ± 0.0 mmol/L
same,Na,"[1]; Male, 100 mg/kg, d 56",146.5 ± 0.7 mmol/L
same,BUN,"[1]; Male, 450 mg/kg, d0",5.3 ± 0.6 mmol/L
same,CHOL,"[1]; Male, 450 mg/kg, d0",3.4 ± 0.5 mmol/L
same,CPK,"[1]; Male, 450 mg/kg, d0",140.4 ± 44.6 U · L^−1
same,CREA,"[1]; Male, 450 mg/kg, d0",68.6 ± 5.1 µM
same,K,"[1]; Male, 450 mg/kg, d0",5.2 ± 0.8 mmol/L
same,Na,"[1]; Male, 450 mg/kg, d0",148.4 ± 2.5 mmol/L
same,BUN,"[1]; Male, 450 mg/kg, d14",11.3 ± 6.7 mmol/L
same,CHOL,"[1]; Male, 450 mg/kg, d14",1.8 ± 0.3 mmol/L
same,CPK,"[1]; Male, 450 mg/kg, d14",290.2 ± 120.0 U · L^−1
same,CREA,"[1]; Male, 450 mg/kg, d14",116 ± 74.4 µM
same,K,"[1]; Male, 450 mg/kg, d14",5.0 ± 0.2 mmol/L
same,Na,"[1]; Male, 450 mg/kg, d14",146.4 ± 3.3 mmol/L
same,BUN,"[1]; Male, 450 mg/kg, d26",10.4 ± 3.1 mmol/L
same,CHOL,"[1]; Male, 450 mg/kg, d26",1.7 ± 0.3 mmol/L
same,CPK,"[1]; Male, 450 mg/kg, d26",133.6 ± 44.6 U · L^−1
same,CREA,"[1]; Male, 450 mg/kg, d26",79 ± 2.8 µM
same,K,"[1]; Male, 450 mg/kg, d26",5.2 ± 0.2 mmol/L
same,Na,"[1]; Male, 450 mg/kg, d26",144.3 ± 2.2 mmol/L
same,BUN,"[1]; Male, 450 mg/kg, d 56",5.1 ± 0.0 mmol/L
same,CHOL,"[1]; Male, 450 mg/kg, d 56",2.8 ± 0.3 mmol/L
same,CPK,"[1]; Male, 450 mg/kg, d 56",99.5 ± 7.8 U · L^−1
same,CREA,"[1]; Male, 450 mg/kg, d 56",66.5 ± 3.5 µM
same,K,"[1]; Male, 450 mg/kg, d 56",4.8 ± 0.8 mmol/L
same,Na,"[1]; Male, 450 mg/kg, d 56",145.3 ± 1.1 mmol/L
same,CREA,"[1]; high-dose female that died early on d23, d14 data",526 µM
same,CHOL,[1]; high-dose males,significantly decreased
same,Serum Na level,"[1]; high-dose males, d26, statistically significant",decreased slightly
same,BUN,"[1]; high-dose, both sexes",significantly increased
same,CPK,"[1]; high-dose, both sexes",significantly increased
same,CREA,"[1]; high-dose, both sexes",significantly increased
same,accumulation,[2]; after consecutive 28 days of administration,the accumulation was not apparent
same,Systemic exposure (plasma AUC0-24h and Cmax of parent compound and main metabolite) vs dose,[2]; dose range of 20 to 450 mg/kg,proportionately greater than the magnitude of the dose increments
